These results are taken from US10780069B2, “Use of GC-1 in transplant related population” (University of Pittsburgh—Of the Commonwealth System of …, priority 2017, dated 2020).

The test system of data set [1] is hepatocytes. Briefly: GC-1 or T3 in hepatocyte specific β-catenin knockout mice (β-Cat LKO) and littermate controls. The class given is in vivo. On the procedure: Eight to 10 week old male hepatocyte specific β-catenin knockout mice (β-cat-LKO) or sex-matched littermate controls obtained from breeding homozygous floxed β-catenin mice and albumin-cre transgenic mice (as described elsewhere (Tan et al., (2006) Gastroenterology 131, 1561-1572)) were given 8 daily IP injections of GC-1 (n=4) or DMSO (n=4) and harvested around 24 hours after the last injection.
(§1) To label dividing hepatocytes, BrdU (5-bromodeoxyuridine) dissolved in drinking water (1 mg/ml) was given to all animals throughout the experiment period. The animals were given food and water ad libitum with a 12-hour light/dark daily cycle.
(§2) Four micron liver sections were analyzed by immunohistochemistry for β-Catenin (BD Biosciences, San Jose, Calif.), Cyclin-D1 (Thermo-Scientific, Fremont, Calif.) and PCNA (Santa Cruz Biotechnology, Dallas, Tex.). Briefly, formalin-fixed sections were deparaffinized in graded xylene and alcohol. Endogenous peroxidase was inactivated using 3% hydrogen peroxide (Sigma). For β-Catenin, Cyclin-D1 staining, slides were microwaved in Citrate buffer followed by blocking with Superblock for 10 minutes. Sections were then incubated with secondary anti-mouse (for β-catenin) or anti-rabbit (for Cyclin-D1) horseradish peroxidase-conjugated antibody for 30 minutes.
(§3) Bromodeoxyuridine (BrdU) was stained with mouse antibody (Becton Dickinson) as previously described (Fanti et al. (2014) Hepatology 59, 2309-2320). Briefly, tissue sections were deparaffinized, exposed to 0.3% hydrogen peroxide in deionized water for 10 minutes to block endogenous peroxidase, treated with 2N HCl, incubated with trypsin 0.1% for 20 minutes and then with normal goat serum for 20 minutes at room temperature. Sections were then incubated overnight in cold room with anti-BrdU monoclonal antibody, followed by biotinylated goat anti-mouse IgG. DAB kit was then applied, and sections were counterstained with hematoxylin. A small segment of intestine was included from each mouse as a positive control for the staining. For quantification of BrdU staining, at least 10 high power fields (400× or 600×) fields each from at least three biological replicates were counted as indicated in the figures. Statistical analysis was performed as described below.
(§4) Protein extraction from frozen liver tissue and western blot analysis were performed as previously described (Fanti et al., (2014) Hepatology 59, 2309-2320). For protein extraction, a small amount of frozen liver tissue was obtained (over dry ice) and was homogenized using RIPA buffer with protease and phosphatase inhibitor cocktail (Sigma, St. Louis, Mo.). Samples were transferred to a 1.5 ml tube on ice, and spun in cold room centrifuge at 14,000 RPM for 5 minutes. Pellet was then discarded and sample was aliquoted and stored at −80 C for use. Fifty micrograms of the proteins were resolved by sodium dodecyl sulfate-polyacrylamide gel electrophoresis analysis, and transferred to immobilon-polyvinylidene difluoride membranes.
(§5) The primary antibodies used were against β-catenin (BD Biosciences); pSer675-β-catenin, pSer552-β-catenin, Active-β-catenin (Cell-Signaling), Cyclin-D1 (Thermo-Scientific), and β-Actin (Sigma). Dilutions of primary antibody were done according to manufacturer recommendations (1:1000 for all except Cyclin-D1 which was 1:200). Horseradish peroxidase-conjugated secondary antibodies used were goat anti-mouse (1:20,000) and goat anti-rabbit (1:10,000) (Millipore). The proteins were detected by Super-Signal West Pico Chemiluminescense Substrate (Thermo Scientific, Rockford Ill.) and visualized by autoradiography.
Total RNA was extracted by homogenizing frozen liver tissues in Trizol reagent (Invitrogen, Carlsbad, Calif.) from GC-1-injected β-Cat LKO (n=4) and littermate control mice (n=4); and GC-1-injected LRP5-6 LKO (n=3) and littermate control mice (n=3). […]

Data set [2] has as its system hepatocytes. Briefly: T3 or GC-1 in LRP5-6 LKO mice and littermate controls. In kind it is in vivo. On the procedure:
Eight to 10 week-old LRP5-6-LKO were obtained from breeding homozygous LRP5-6 double floxed mice with albumin-cre transgenic mice as described previously (Yang et al. (2014) Hepatology 60, 964-976). LRP5-6-LKO or sex matched littermate controls were given either T3-supplemented diet (n=4), basal diet (n=3), IP GC-1 (n=3) or IP DMSO (n=3). Mice were sacrificed at 24 hours after the last IP injection.
To label dividing hepatocytes, BrdU (5-bromodeoxyuridine) dissolved in drinking water (1 mg/ml) was given to all animals throughout the experiment period. The animals were given food and water ad libitum with a 12-hour light/dark daily cycle. […]
as §4
as §5, with “autoradiography. […]” for “autoradiography.”

The subject of data set [3] is hepatocytes. As to the kind of experiment: Partial hepatectomy after pretreatment with T3 or GC-1 supplemented diet. In kind it is in vivo, mice. On the procedure: as §1
After 7 days of receiving T3 supplemented diet (n=3) or GC-1 diet (n=3) or standard basal mouse chow (n=3), C57BL/6 male mice underwent partial hepatectomy as described previously (Tan et al. (2006) Gastroenterology 131, 1561-1572). Anesthesia was provided with inhaled Isoflurane. The animals were sacrificed 24 hours post hepatectomy, after Isoflurane anesthesia and cervical dislocation. Serum and liver tissue were harvested for further processing.
as §2, §3

For the compound `Cc1cc(OCC(=O)O)cc(C)c1Cc1ccc(O)c(C(C)C)c1` [GC-1, Sobetirome], in data set [1] (β-Cat LKO after T3 or GC-1 treatment), the “active β-catenin, Western blot” value is recorded as “very faint signal”. In addition, the “P-Ser675-β-catenin, Western blot” value in data set [1] (β-Cat LKO vs controls treated with GC-1 or T3) is recorded as “absent”. For the same compound, the “nuclear cyclin-D1 by immunohistochemistry” value in data set [1] (β-Cat LKO vs controls, GC-1) is “notable decrease”. For the same compound, the “BrdU incorporation in hepatocytes (hepatocyte proliferation)” value in data set [1] (β-Cat LKO vs littermate controls, GC-1 0.3 mg/Kg/dose IP, 8 days) is on record as “decreased hepatocyte proliferation”. Further, the “BrdU incorporation in non-parenchymal cell population” value in data set [1] (β-Cat LKO, GC-1 IP) is on record as “notable BrdU incorporation continued to occur”. In data set [1] (β-catenin-LKO mice receiving GC-1 vs controls), the “cyclin-D1 mRNA expression (RT-PCR)” value is recorded as “significant decrease”. Moreover, the “pSer675-β-catenin levels, Western blot” value in data set [2] (LRP5-6-LKO and littermate controls) is reported as “comparable or even greater levels”. Moreover, the “pSer552-β-catenin levels, Western blot” value in data set [2] (LRP5-6 LKO) was “modest increase”. Further, the “active β-catenin levels” value in data set [2] (LRP5-6 LKO after T3 or GC-1 feeding vs basal diet) is on record as “no notable differences”. Besides, in data set [2] (LRP5-6 LKO vs controls), the “cyclin-D1 protein and mRNA expression” value is given as “decreased”; the “numbers of cyclin-D1-positive hepatocytes (immunohistochemistry)” value was “notably decreased”; the “total β-catenin levels” value is “comparable levels”. In data set [2] (LRP5-6 LKO vs controls, T3 diet 4 mg/Kg of diet or GC-1 0.3 mg/Kg/dose IP 8 days), the “number of BrdU-labeled hepatocyte nuclei” value was “notable decrease”. Besides, in data set [2] (control mice fed T3 or GC-1 diet for 8 days vs basal diet), the “active β-catenin levels in liver lysates” value was “dramatic increase”. For the same compound, the “nuclear cyclin-D1 immunohistochemistry at 24 hours after hepatectomy” value in data set [3] (24 hours after hepatectomy) is listed as “panlobular distribution”. Moreover, the “BrdU positive hepatocyte nuclei at 24 hours after hepatectomy” value in data set [3] (diet pretreatment, vs basal diet) is “pronounced increase”. The “increase in hepatocyte proliferation over the 24-hour liver regeneration period” value in data set [3] (pre-hepatectomy vs 24 hour-post hepatectomy, same animals, all three mice) was “around 2 fold”. Moreover, the “cyclin-D1 immunohistochemistry in resected lobes at time of hepatectomy” value in data set [3] (pretreatment livers) is “expansion of cyclin-D1 positive hepatocytes in the midzonal area”. The “BrdU-positive hepatocytes in resected lobes at time of hepatectomy” value in data set [3] (seven-day pretreatment, vs basal diet) was “increased BrdU-positive hepatocytes”.
